Legend:
Assay type in all cases: biochemical
PKC γ = PKC γ (Homo sapiens, UniProt P05129); assay: Protein Kinase C Histone-Based Assay, γ isoform; settings: histone III substrate, 30 μM ATP, 10 min at 30° C.; read-out: PKC Activity (IC50 μM, Histone Based Assay) Gamma
Experimental: (§1) Compounds were evaluated for PKC selectivity using histone III as the substrate. […] The reaction was incubated for 10 min at 30° C. Reactions were terminated by TCA precipitation and spotting on Whatman P81 filters. Filters were washed in 75 mM phosphoric acid and the radioactivity quantified by liquid scintillation counting.

PKC α = PKC α (Homo sapiens, UniProt P17252); assay: Protein Kinase C Histone-Based Assay, α isoform; settings: histone III substrate, 30 μM ATP, 10 min at 30° C.; read-out: PKC Activity (IC50 μM, Histone Based Assay) Alpha
Experimental: as §1

PKC β-II = PKC β-II (Homo sapiens, UniProt P05771); assay: Protein Kinase C Histone-Based Assay, β-II isoform; settings: histone III substrate, 30 μM ATP, 10 min at 30° C.; read-out: PKC Activity (IC50 μM, Histone Based Assay) Beta II
Experimental: as §1

Chain of PKC β-II (P05771 1-673 isoform P05771-2): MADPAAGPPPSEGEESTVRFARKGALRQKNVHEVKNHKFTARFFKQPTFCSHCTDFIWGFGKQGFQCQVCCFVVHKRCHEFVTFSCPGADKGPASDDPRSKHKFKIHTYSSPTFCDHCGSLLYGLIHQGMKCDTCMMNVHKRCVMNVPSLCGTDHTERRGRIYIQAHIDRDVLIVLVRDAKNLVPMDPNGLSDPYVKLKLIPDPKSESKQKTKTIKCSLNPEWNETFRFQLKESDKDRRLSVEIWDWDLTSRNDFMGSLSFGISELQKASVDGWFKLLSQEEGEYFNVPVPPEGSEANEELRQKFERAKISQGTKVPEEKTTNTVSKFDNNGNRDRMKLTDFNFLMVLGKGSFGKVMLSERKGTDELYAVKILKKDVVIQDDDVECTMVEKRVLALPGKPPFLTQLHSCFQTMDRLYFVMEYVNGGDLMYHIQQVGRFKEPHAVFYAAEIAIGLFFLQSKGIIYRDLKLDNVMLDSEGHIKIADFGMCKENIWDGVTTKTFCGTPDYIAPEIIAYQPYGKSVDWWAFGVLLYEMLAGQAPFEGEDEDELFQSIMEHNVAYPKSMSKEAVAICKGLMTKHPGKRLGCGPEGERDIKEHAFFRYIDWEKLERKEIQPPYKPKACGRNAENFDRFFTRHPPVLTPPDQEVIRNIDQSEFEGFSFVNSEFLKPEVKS

IC50 (PKC γ)	IC50 (PKC α)	IC50 (PKC β-II)	SMILES
0.262 µM	0.141 µM	0.008 µM	CN(C)CCCn1nc(C2=C(c3cn(-c4cccs4)c4ccccc34)C(=O)NC2=O)c2ccccc21 [Compound 9, 3-[1-[3-(dimethylamino)propyl]-1H-indazol-3-yl]-4-[1-(2-thienyl)-1H-indol-3-yl]-1H-pyrrole-2,5-dione]
0.213 µM	0.124 µM	0.007 µM	CN(C)CCCn1nc(C2=C(c3cn(-c4cccnc4)c4ccccc34)C(=O)NC2=O)c2ccccc21 [Compound 12, 3-[1-[3-(dimethylamino)propyl]-1H-indazol-3-yl]-4-[1-(3-pyridinyl)-1H-indol-3-yl]-H-pyrrole-2,5-dione]
0.045 µM	0.011 µM	0.004 µM	CN(C)CCCn1nc(C2=C(c3cn(-c4cccnc4)c4ccc(Cl)cc34)C(=O)NC2=O)c2ccccc21 [Compound 13, 3-[5-chloro-1-(3-pyridinyl)-1H-indol-3-yl]-4-[1-[3-(dimethylamino)propyl]-1H-indazol-3-yl]-1H-pyrrole-2,5-dione]
0.115 µM	0.057 µM	0.005 µM	CN(C)CCCn1nc(C2=C(c3cn(-c4ccc5ccccc5c4)c4ccccc34)C(=O)NC2=O)c2ccccc21 [Compound 14, 3-[1-[3-(dimethylamino)propyl]-1H-indazol-3-yl]-4-[1-(2-naphthalenyl)-1H-indol-3-yl]-1H-pyrrole-2,5-dione]
3.35 µM	1.23 µM	0.029 µM	CN(C)CCCn1nc(C2=C(c3cn(-c4cccc5ccccc45)c4ccccc34)C(=O)NC2=O)c2ccccc21 [Compound 15, 3-[1-[3-(dimethylamino)propyl]-1H-indazol-3-yl]-4-[1-(1-naphthalenyl)-1H-indol-3-yl]-1H-pyrrole-2,5-dione]
0.253 µM	0.29 µM	0.015 µM	CN(C)CCCn1nc(C2=C(c3cn(-c4cncc5ccccc45)c4ccccc34)C(=O)NC2=O)c2ccccc21 [Compound 16, 3-[1-[3-(dimethylamino)propyl]-1H-indazol-3-yl]-4-[1-(4-isoquinolinyl)-1H-indol-3-yl]-1H-pyrrole-2,5-dione]
0.047 µM	0.011 µM	0.004 µM	CN(C)CCCn1nc(C2=C(c3cn(-c4cnc5ccccc5c4)c4ccccc34)C(=O)NC2=O)c2ccccc21 [Compound 19, 3-[1-[3-(dimethylamino)propyl]-1H-indazol-3-yl]-4-[1-(3-quinolinyl)-1H-indol-3-yl]-1H-pyrrole-2,5-dione]
0.09 µM	0.043 µM	0.006 µM	O=C1NC(=O)C(c2nn(CCCN3CCOCC3)c3ccccc23)=C1c1cn(-c2cnc3ccccc3c2)c2ccccc12 [Compound 22, 3-[1-[3-(4-morpholinyl)propyl]-1H-indazol-3-yl]-4-[1-(3-quinolinyl)-1H-indol-3-yl]-1H-pyrrole-2,5-dione]
0.188 µM	0.546 µM	0.054 µM	O=CCCn1nc(C2=C(c3cn(-c4cnc5ccccc5c4)c4ccccc34)C(=O)NC2=O)c2ccccc21 [Compound 23, 3-[2,5-dihydro-2,5-dioxo-4-[1-(3-quinolinyl)-1H-indol-3-yl]-1H-pyrrol-3-yl]-1H-indazole-1-propionaldehyde]
1.29 µM	0.2 µM	0.029 µM	O=C1NC(=O)C(c2nn(CCC3OCCO3)c3ccccc23)=C1c1cn(-c2cnc3ccccc3c2)c2ccccc12 [Compound 24, 3-[1-[2-(1,3-dioxolan-2-yl)ethyl]-1H-indazol-3-yl]-4-[1-(3-quinolinyl)-1H-indol-3-yl]-1H-pyrrole-2,5-dione]
0.091 µM	0.106 µM	0.015 µM	CN(C)CCCn1nc(C2=C(c3cn(-c4ccccn4)c4ccccc34)C(=O)NC2=O)c2ccccc21 [Compound 31, 3-[1-[3-(dimethylamino)propyl]-1H-indazol-3-yl]-4-[1-(2-pyridinyl)-1H-indol-3-yl]-1H-pyrrole-2,5-dione]
0.665 µM	0.205 µM	0.009 µM	CN(C)CCCn1nc(C2=C(c3cn(-c4cncnc4)c4ccccc34)C(=O)NC2=O)c2ccccc21 [Compound 34, 3-[1-[3-(dimethylamino)propyl]-1H-indazol-3-yl]-4-[1-(5-pyrimidinyl)-1H-indol-3-yl]-1H-pyrrole-2,5-dione]
0.168 µM	0.071 µM	0.01 µM	CN(C)CCCn1nc(C2=C(c3cn(-c4ccccc4)c4ccccc34)C(=O)NC2=O)c2ccccc21 [Compound 45, 3-[1-[3-(dimethylamino)propyl]-1H-indazol-3-yl]-4-(1-phenyl-1H-indol-3-yl)-1H-pyrrole-2,5-dione]
0.713 µM	0.611 µM	0.037 µM	CN(C)CCCn1nc(C2=C(c3cn(-c4csc5ccccc45)c4ccccc34)C(=O)NC2=O)c2ccccc21 [Compound 60, 3-(1-benzo[b]thien-3-yl-1H-indol-3-yl)-4-[1-[3-(dimethylamino)propyl]-1H-indazol-3-yl]-1H-pyrrole-2,5-dione]
0.215 µM	0.101 µM	0.013 µM	CN(C)CCCn1nc(C2=C(c3cn(-c4ccc5cc(O)ccc5c4)c4ccccc34)C(=O)NC2=O)c2ccccc21 [Compound 64, 3-[1-[3-(dimethylamino)propyl]-1H-indazol-3-yl]-4-[1-(6-hydroxy-2-naphthalenyl)-1H-indol-3-yl]-1H-pyrrole-2,5-dione]
0.65 µM	1.48 µM	0.016 µM	CN(C)CCCn1nc(C2=C(c3cn(Cc4ccc5ccccc5n4)c4ccccc34)C(=O)NC2=O)c2ccccc21 [Compound 67, 3-[1-[3-(dimethylamino)propyl]-1H-indazol-3-yl]-4-[1-(2-quinolinylmethyl)-1H-indol-3-yl]-1H-pyrrole-2,5-dione]
0.342 µM	0.259 µM	0.018 µM	O=C1NC(=O)C(c2nn(CCCN3CCOCC3)c3ccccc23)=C1c1cn(-c2ccc3ccccc3c2)c2ccccc12 [Compound 70, 3-[1-[3-(4-morpholinyl)propyl]-1H-indazol-3-yl]-4-[1-(2-naphthalenyl)-1H-indol-3-yl]-1H-pyrrole-2,5-dione]
0.206 µM	0.358 µM	0.057 µM	O=C1NC(=O)C(c2nn(CCCO)c3ccccc23)=C1c1cn(-c2ccc3ccccc3c2)c2ccccc12 [Compound 84, 3-[1-(3-hydroxypropyl)-1H-indazol-3-yl]-4-[1-(2-naphthalenyl)-1H-indol-3-yl]-1H-pyrrole-2,5-dione]
0.511 µM	0.477 µM	0.044 µM	O=C1NC(=O)C(c2nn(CCCN3CCCC3)c3ccccc23)=C1c1cn(-c2ccc3ccccc3c2)c2ccccc12 [Compound 85, 3-[1-(2-naphthalenyl)-1H-indol-3-yl]-4-[1-[3-(1-pyrrolidinyl)propyl]-1H-indazol-3-yl]-1H-pyrrole-2,5-dione]
0.232 µM	0.422 µM	0.038 µM	CN(CCO)CCCn1nc(C2=C(c3cn(-c4ccc5ccccc5c4)c4ccccc34)C(=O)NC2=O)c2ccccc21 [Compound 88, 3-[1-[3-[(2-hydroxyethyl)methylamino]propyl]-1H-indazol-3-yl]-4-[1-(2-naphthalenyl)-1H-indol-3-yl]-1H-pyrrole-2,5-dione]
0.134 µM	0.08 µM	0.019 µM	CN(C)CCn1nc(C2=C(c3cn(-c4ccc5ccccc5c4)c4ccccc34)C(=O)NC2=O)c2ccccc21 [Compound 101, 3-[1-[2-(dimethylamino)ethyl]-1H-indazol-3-yl]-4-[1-(2-naphthalenyl)-1H-indol-3-yl]-1H-pyrrole-2,5-dione]
0.161 µM	0.189 µM	0.02 µM	CN(C)CCn1nc(C2=C(c3cn(-c4csc5ccccc45)c4ccccc34)C(=O)NC2=O)c2ccccc21 [Compound 103, 3-(1-benzo[b]thien-3-yl-1H-indol-3-yl)-4-[1-[2-(dimethylamino)ethyl]-1H-indazol-3-yl]-1H-pyrrole-2,5-dione]
0.231 µM	0.032 µM	0.005 µM	NCCCn1nc(C2=C(c3cn(-c4cccnc4)c4ccccc34)C(=O)NC2=O)c2ccccc21 [Compound 109, 3-[1-(3-aminopropyl)-1H-indazol-3-yl]-4-[1-(3-pyridinyl)-1H-indol-3-yl]-1H-pyrrole-2,5-dione]
–	–	0.026 µM	CN(C)CCn1nc2ccccc2c1C1=C(c2cn(-c3csc4ccccc34)c3ccccc23)C(=O)NC1=O [Compound 123, 3-(1-benzo[b]thien-3-yl-1H-indol-3-yl)-4-[2-[2-(dimethylamino)ethyl]-2H-indazol-3-yl]-1H-pyrrole-2,5-dione]
–	0.339 µM	0.005 µM	CN(C)CCCn1nc(C2=C(c3cn(-c4cccnc4)c4ccccc34)C(=O)NC2)c2ccccc21 [Compound 125, 4-[1-[3-(dimethylamino)propyl]-1H-indazol-3-yl]-1,5-dihydro-3-[1-(3-pyridinyl)-1H-indol-3-yl]-2H-pyrrol-2-one]

Source: patent US7329657B2, “Indazolyl-substituted pyrroline compounds as kinase inhibitors” (Ortho-McNeil Pharmaceutical, Inc., priority 2000, dated 2008)
